The record followed here is patent US20240400561A1, “NOVEL SUBSTITUTED SULFONYLUREA COMPOUNDS AS INHIBITORS OF INTERLEUKIN-1 ACTIVITY” (Viva Star Biosciences (Suzhou) Co., Ltd., priority 2021, published 2024).

Each structure is given as a SMILES string.

In this test the target is T1, NLRP3 (Homo sapiens, UniProt Q96P20).
T1 construct: Seed THP-1 cells (5.56*10^5 cells/mL) containing 1.0 ug/mL LPS; endogenous in cells; host or cells: THP-1 cells
As to the kind of experiment: THP-1 cell assay (LPS priming, nigericin), IL1β release by HTRF; called pyroptosis assay, THP IC50. It counts as cell-based. The note with it: NLRP3 inhibitory activity; THP-1 cells, 1.0 ug/mL LPS, compound 3 hrs, nigericin 5 uM 1 hr, IL1β in supernatant. Here is the method: The following method was used for compound screening. • 1. Seed THP-1 cells (5.56*10^5 cells/mL) containing 1.0 ug/mL LPS (SIGMA, L6529) in 45 uL RPMI 1640 medium (without FBS) into 384-well plate (Thermo Scientific, 164688). • 2. Add 5 uL compound (10 doses starting from 5 uM, 1:3 dilution) or vehicle (0.05% DMSO in medium) to the appropriate wells. • 3. Centrifuge the plates at 1000 rpm for 2 mins and incubate for 3 hrs at 37° C., 5% CO2. • 4. Add 5 uL nigericin (MEC, HY-100381) (final conc. 5 uM) to sample wells and positive control wells; add 5 uL RPMI 1640 medium to negative control wells. • 5. Centrifuge plates at 1000 rpm for 2 mins and incubate for 1 hr at 37° C., 5% CO2. • 6. At the end of the incubation period, centrifuge plates at 1000 rpm for 6 mins and transfer 8 uL supernatant into 384-well assay plates (PerkinElmer, 6008280). • 7. Add 8 ul RPMI 1640 medium into each well and spin down for 10 secs. • 8. Prepare the standard solutions and pre-mixed IL1β antibody solution of Human […] kits (PerkinElmer, 62HIL1BPEH) according to the instruction. • 9. Add 16 uL standard solutions into clear wells of 384-well assay plates. • 10. Add 4 uL pre-mixed IL1β antibody solution to all wells including sample wells, positive control wells, negative control wells and standard solutions wells. • 11. Seal the plates, spin down for 10 secs, incubation for overnight at RT and read on an HTRF® compatible reader (BMG LABTECH, PHERAstar FS). • 12. The concentrations of IL1β for treated wells are calculated by the standard curve. • 13. The IC50 data is fitted to a non-liner regression equation (log inhibitor vs. response—Variable slope four parameters)).

T1 sequence (Q96P20 whole entry): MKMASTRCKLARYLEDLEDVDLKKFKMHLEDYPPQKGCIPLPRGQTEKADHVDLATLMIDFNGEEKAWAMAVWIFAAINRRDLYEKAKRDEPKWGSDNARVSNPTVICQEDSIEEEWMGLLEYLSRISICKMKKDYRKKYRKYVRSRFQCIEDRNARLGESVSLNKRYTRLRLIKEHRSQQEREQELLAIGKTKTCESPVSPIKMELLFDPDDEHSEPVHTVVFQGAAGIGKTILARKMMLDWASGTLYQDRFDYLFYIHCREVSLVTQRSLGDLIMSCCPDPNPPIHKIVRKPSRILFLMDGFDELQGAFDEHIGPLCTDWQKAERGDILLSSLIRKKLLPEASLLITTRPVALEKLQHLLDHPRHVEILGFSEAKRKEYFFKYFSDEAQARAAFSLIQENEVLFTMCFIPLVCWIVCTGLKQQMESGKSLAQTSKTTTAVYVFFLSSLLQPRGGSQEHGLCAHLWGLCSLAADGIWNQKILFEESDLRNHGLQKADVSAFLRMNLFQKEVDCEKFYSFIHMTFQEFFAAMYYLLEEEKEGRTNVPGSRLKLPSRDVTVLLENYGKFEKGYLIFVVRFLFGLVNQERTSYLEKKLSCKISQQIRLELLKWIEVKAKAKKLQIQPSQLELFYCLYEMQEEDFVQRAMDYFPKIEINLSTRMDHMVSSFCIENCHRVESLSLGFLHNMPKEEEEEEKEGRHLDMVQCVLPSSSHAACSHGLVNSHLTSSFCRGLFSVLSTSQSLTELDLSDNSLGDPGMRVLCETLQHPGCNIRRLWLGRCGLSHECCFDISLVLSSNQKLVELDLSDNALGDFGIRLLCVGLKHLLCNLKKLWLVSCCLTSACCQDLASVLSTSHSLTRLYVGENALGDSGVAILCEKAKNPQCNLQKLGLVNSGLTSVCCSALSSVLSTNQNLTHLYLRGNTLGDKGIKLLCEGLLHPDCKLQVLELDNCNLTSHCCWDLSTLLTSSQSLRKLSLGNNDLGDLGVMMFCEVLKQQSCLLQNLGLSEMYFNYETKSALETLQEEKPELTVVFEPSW

One may read the IC50 as the concentration needed to halve the response being measured. Read a low IC50 as higher potency. `Cc1cc2c(c(NC(=O)NS(=O)(=O)c3ccn([C@@H]4CC[C@@H]4O)n3)c1-c1ccn3nccc3c1)CCC2` (relative stereo) [Example 85, 1-(rel-(1R,2S)-2-hydroxycyclobutyl)-N-((6-methyl-5-(pyrazolo[1,5-a]pyridin-5-yl)-2,3-dihydro-1H-inden-4-yl)carbamoyl)-1H-pyrazole-3-sulfonamide] yielded an IC50 of over 2000 nM.
In the case of `Cc1cc2c(c(NC(=O)NS(=O)(=O)c3ccn(C4CC4)n3)c1-c1ccn3nccc3c1)CCC2` [Example 1, 1-cyclopropyl-N-((6-methyl-5-(pyrazolo[1,5-a]pyridin-5-yl)-2,3-dihydro-1H-inden-4-yl)carbamoyl)-1H-pyrazole-3-sulfonamide] it was at most 30 nM; in that of `CC(C)(O)c1csc(S(=O)(=O)NC(=O)Nc2c3c(cc(C#N)c2-c2ccn4cncc4c2)CCC3)c1` [Example 2, N-((6-cyano-5-(imidazo[1,5-a]pyridin-7-yl)-2,3-dihydro-1H-inden-4-yl)carbamoyl)-4-(2-hydroxypropan-2-yl)thiophene-2-sulfonamide], at most 30 nM.
In the case of `Cc1cc2c(c(NC(=O)NS(=O)(=O)C3CC(OC4CC4)C3)c1-c1ccnc3[nH]ccc13)CCC2` (stereo not shown) [Example 3, 3-cyclopropoxy-N-((6-methyl-5-(1H-pyrrolo[2,3-b]pyridin-4-yl)-2,3-dihydro-1H-inden-4-yl)carbamoyl)cyclobutane-1-sulfonamide] it was 30 to 300 nM.
The value for `Cn1ccc2c(-c3ccc4c(c3NC(=O)NS(=O)(=O)c3cnn(CC5CC5)c3)CCC4)ccnc21` [Example 4, 1-(cyclopropylmethyl)-N-((5-(1-methyl-1H-pyrrolo[2,3-b]pyridin-4-yl)-2,3-dihydro-1H-inden-4-yl)carbamoyl)-1H-pyrazole-4-sulfonamide] was 30 to 300 nM; that for `O=C(Nc1c(-c2ccnc3[nH]ccc23)ccc2c1CCC2)NS(=O)(=O)c1cnn(CC2CC2)c1` [Example 5, N-((5-(1H-pyrrolo[2,3-b]pyridin-4-yl)-2,3-dihydro-1H-inden-4-yl)carbamoyl)-1-(cyclopropylmethyl)-1H-pyrazole-4-sulfonamide] was at most 30 nM.
With `Cc1cc2c(c(NC(=O)NS(=O)(=O)c3cnn(CC4CC4)c3)c1-c1ccn3nccc3c1)CCC2` [Example 6, 1-(cyclopropylmethyl)-N-((6-methyl-5-(pyrazolo[1,5-a]pyridin-5-yl)-2,3-dihydro-1H-inden-4-yl)carbamoyl)-1H-pyrazole-4-sulfonamide], the IC50 was at most 30 nM.
In the case of `O=C(Nc1c(-c2ccn3nccc3c2)ccc2c1CCC2)NS(=O)(=O)c1cnn(CC2CC2)c1` [Example 7, 1-(cyclopropylmethyl)-N-((5-(pyrazolo[1,5-a]pyridin-5-yl)-2,3-dihydro-1H-inden-4-yl)carbamoyl)-1H-pyrazole-4-sulfonamide] it was at most 30 nM; in that of `Cc1cc2c(c(NC(=O)NS(=O)(=O)c3cnn(CC4CC4)c3)c1-c1ccnc3[nH]ccc13)CCC2` [Example 8, 1-(cyclopropylmethyl)-N-((6-methyl-5-(1H-pyrrolo[2,3-b]pyridin-4-yl)-2,3-dihydro-1H-inden-4-yl)carbamoyl)-1H-pyrazole-4-sulfonamide], at most 30 nM; in that of `Cc1cc2c(c(NC(=O)NS(=O)(=O)c3ccn(CC4CC4)n3)c1-c1ccn3nccc3c1)CCC2` [Example 10, 1-(cyclopropylmethyl)-N-((6-methyl-5-(pyrazolo[1,5-a]pyridin-5-yl)-2,3-dihydro-1H-inden-4-yl)carbamoyl)-1H-pyrazole-3-sulfonamide], at most 30 nM.
In the case of `Cc1cc2c(c(NC(=O)NS(=O)(=O)c3ccn(CC4CCC4)n3)c1-c1ccn3nccc3c1)CCC2` [Example 11, 1-(cyclobutylmethyl)-N-((6-methyl-5-(pyrazolo[1,5-a]pyridin-5-yl)-2,3-dihydro-1H-inden-4-yl)carbamoyl)-1H-pyrazole-3-sulfonamide] it was at most 30 nM; in that of `Cc1cc2c(c(NC(=O)NS(=O)(=O)c3cnn(C4CCC4)c3)c1-c1ccn3nccc3c1)CCC2` [Example 12, 1-cyclobutyl-N-((6-methyl-5-(pyrazolo[1,5-a]pyridin-5-yl)-2,3-dihydro-1H-inden-4-yl)carbamoyl)-1H-pyrazole-4-sulfonamide], at most 30 nM; in that of `N#Cc1cc2c(c(NC(=O)NS(=O)(=O)c3cnn(CC4CC4)c3)c1-c1ccn3cncc3c1)CCC2` [Example 13, N-((6-cyano-5-(imidazo[1,5-a]pyridin-7-yl)-2,3-dihydro-1H-inden-4-yl)carbamoyl)-1-(cyclopropylmethyl)-1H-pyrazole-4-sulfonamide], at most 30 nM.
The value for `Cc1cc2c(c(NC(=O)NS(=O)(=O)c3cnn(C4CC4)c3)c1-c1ccn3nccc3c1)CCC2` [Example 14, 1-cyclopropyl-N-((6-methyl-5-(pyrazolo[1,5-a]pyridin-5-yl)-2,3-dihydro-1H-inden-4-yl)carbamoyl)-1H-pyrazole-4-sulfonamide] was at most 30 nM.
In turn, `COC(c1cc(S(=O)(=O)NC(=O)Nc2c3c(cc(C)c2-c2ccn4nccc4c2)CCC3)nn1C)C1CC1` (stereo not shown) [Example 15, 5-(cyclopropyl(methoxy)methyl)-1-methyl-N-((6-methyl-5-(pyrazolo[1,5-a]pyridin-5-yl)2,3-dihydro-1H-inden-4-yl)carbamoyl)-1H-pyrazole-3-sulfonamide] showed an IC50 of 30 to 300 nM.
The value for `Cc1cc2c(c(NC(=O)NS(=O)(=O)c3cc(C(O)C4CC4)n(C)n3)c1-c1ccn3nccc3c1)CCC2` (stereo not shown) [Example 16, 5-(cyclopropyl(hydroxy)methyl)-1-methyl-N-((6-methyl-5-(pyrazolo[1,5-a]pyridin-5-yl)-2,3-dihydro-1H-inden-4-yl)carbamoyl)-1H-pyrazole-3-sulfonamide] was at most 30 nM; that for `Cc1cc2c(c(NC(=O)NS(=O)(=O)c3cc(CC4CC4)n(C)n3)c1-c1ccn3nccc3c1)CCC2` [Example 17, 5-(cyclopropylmethyl)-1-methyl-N-((6-methyl-5-(pyrazolo[1,5-a]pyridin-5-yl)-2,3-dihydro-1H-inden-4-yl)carbamoyl)-1H-pyrazole-3-sulfonamide] was at most 30 nM; that for `Cc1cc2c(c(NC(=O)NS(=O)(=O)c3cnn(CC4CC4)c3)c1-c1ccn3ccnc3c1)CCC2` [Example 18, 1-(cyclopropylmethyl)-N-((5-(imidazo[1,2-a]pyridin-7-yl)-6-methyl-2,3-dihydro-1H-inden-4-yl)carbamoyl)-1H-pyrazole-4-sulfonamide] was at most 30 nM.
In the case of `Cc1cc2c(c(NC(=O)NS(=O)(=O)c3cnn(CC4CC4)c3)c1-c1ccc3nccn3c1)CCC2` [Example 19, 1-(cyclopropylmethyl)-N-((5-(imidazo[1,2-a]pyridin-6-yl)-6-methyl-2,3-dihydro-1H-inden-4-yl)carbamoyl)-1H-pyrazole-4-sulfonamide] it was at most 30 nM; in that of `Cc1cc2c(c(NC(=O)NS(=O)(=O)c3cnn(CC4CC4)c3)c1-c1ccc3cncn3c1)CCC2` [Example 20, 1-(cyclopropylmethyl)-N-((5-(imidazo[1,5-a]pyridin-6-yl)-6-methyl-2,3-dihydro-1H-inden-4-yl)carbamoyl)-1H-pyrazole-4-sulfonamide], 30 to 300 nM.
In the case of `Cc1cc2c(c(NC(=O)NS(=O)(=O)c3cnn(CC4CC4)c3)c1-c1ccc3ccnn3c1)CCC2` [Example 21, 1-(cyclopropylmethyl)-N-((6-methyl-5-(pyrazolo[1,5-a]pyridin-6-yl)-2,3-dihydro-1H-inden-4-yl)carbamoyl)-1H-pyrazole-4-sulfonamide] it was at most 30 nM.
For the compound `O=C(Nc1c(-c2cnc3ccnn3c2)ccc2c1CCC2)NS(=O)(=O)c1cnn(CC2CC2)c1` [Example 22, 1-(cyclopropylmethyl)-N-((5-(pyrazolo[1,5-a]pyrimidin-6-yl)-2,3-dihydro-1H-inden-4-yl)carbamoyl)-1H-pyrazole-4-sulfonamide], the IC50 is over 2000 nM.
The value for `Cc1cc2c(c(NC(=O)NS(=O)(=O)c3ccn(C4CCC4)n3)c1-c1ccn3nccc3c1)CCC2` [Example 23, 1-cyclobutyl-N-((6-methyl-5-(pyrazolo[1,5-a]pyridin-5-yl)-2,3-dihydro-1H-inden-4-yl)carbamoyl)-1H-pyrazole-3-sulfonamide] was at most 30 nM.
In the case of `O=C(Nc1c2c(cc(F)c1-c1ccn3nccc3c1)CCC2)NS(=O)(=O)c1ccn(CC2CC2)n1` [Example 24, 1-(cyclopropylmethyl)-N-((6-fluoro-5-(pyrazolo[1,5-a]pyridin-5-yl)-2,3-dihydro-1H-inden-4-yl)carbamoyl)-1H-pyrazole-3-sulfonamide] it was at most 30 nM; in that of `O=C(Nc1c2c(cc(F)c1-c1ccn3nccc3c1)CCC2)NS(=O)(=O)c1ccn(C2CC2)n1` [Example 25, 1-cyclopropyl-N-((6-fluoro-5-(pyrazolo[1,5-a]pyridin-5-yl)-2,3-dihydro-1H-inden-4-yl)carbamoyl)pyrazole-3-sulfonamide], at most 30 nM.
